Like-named read-outs stand apart in the source and are kept apart here.
Key:
IRAK-1 = IRAK-1 (Homo sapiens, UniProt P51617); conditions: supplier (EMD Millipore) description; cited from earlier work
CCRF-CEM T-ALL cells = assay: Antibody (protein) array of apoptosis-related proteins; conditions: IRAK-1,-4 inhibitor vs DMSO, 72 hours, normalised to GAPDH
Procedure: We also used a protein array from Full Moon Biosystems (Sunnyvale, Calif., USA). For these experiments, purified T-ALL cells were incubated for 48 hours in the presence of IRAK-1,-4 inhibitor (5 μM) or an equal volume of vehicle (DMSO). Then, total protein was extracted, and the levels of various proteins were measured according to the manufacturer's protocol.

A375 melanoma cells = assay: A375 melanoma xenograft model; conditions: IRAK-1,-4 inhibitor 35 mg/kg intratumorally, vinblastine 0.25 mg/kg i.p.; control 17 days
Procedure: (A-B) NSG mice (n=5) were injected subcutaneously with A375 melanoma cells. When tumors reached a size of approximately 50 mm^2 mice remained untreated or injected intraperitoneally with vinblastine mg/kg; administered every 2 days for 10 days), or peritumorally with IRAK-1,-4 inhibitor (35 mg/kg), or vinblastine plus IRAK.-1,-4 inhibitor. Tumor sizes were calculated by measuring perpendicular by longitudinal diameter;*, P<0.05. Mouse survival data were analyzed using the exact log-rank test;*, P<0.05, **P<0.001.
NOD.Cg-Prkdc^scid Il2rg^tmWJZ; SzJ IL2RG (NSG) mice (Jackson Laboratories, Bar Harbor, Me.) were subcutaneously (s.c.) injected with 2.5×10^6 A375 melanoma cells delivered in PBS. […] When tumors reached a size of approximately 50 mm^2 mice were injected intratumorally (i.t.) with 35 mg/kg of IRAK-1,-4 inhibitor or an equal volume of vehicle (DMSO). Mice were intraperitoneally (i.p.) injected with vinblastine (0.25 mg/kg) every 2 days for 5 days starting on the same day that mice received with IRAK-1,-4 inhibitor. Tumor sizes were analyzed using a mixed model approach for repeated measurements and mouse survival data were analyzed with the exact log-rank test.

[1] = tested on: panel of 27 other kinases; conditions: supplier (EMD Millipore) description, cited from earlier work
Jurkat = assay: Proliferation (3H-thymidine) of Jurkat; assay type: cell-based, human; conditions: 3H-thymidine uptake, 72 h
Excerpt: (§1) CCRF-CEM, CEM/C1, CEM/C2, CEM-C7, Jurkat, Loucy, Molt-4, HSB-2, SUP-T1, Hut 78, HH, Hut 102, MO, and H9 T-leukemia and T-lymphoma cell lines were purchased from the American Type Culture Collection (Manassas, Va., USA). All of the cell lines were initially expanded and cryopreserved within one month of receipt. Cells were typically used for 6 months at which time a fresh vial of cryopreserved cells was used. Total T cells from healthy donors were isolated via negative selection followed by positive selection using a CD3+ selection kit (Invitrogen, Carlsbad, Calif.). T cells were isolated from patients with T-ALL bone marrow or peripheral blood samples containing more than 70% leukemia cells using a CD2+ isolation kit (STEMCELL Technologies, Vancouver, Canada). All tissues were collected under institutional IRB-approved protocols and all participants gave written informed assent/consent. For in vitro experiments, T-ALL cells were cultured in AIM-V medium supplemented with 20% human AB serum in the presence of recombinant human stem cell factor (50 ng/mL; Amgen, Thousand Oaks, Calif.), insulin (20 nM; Sigma-Aldrich, St Louis, Mo., USA) and IL-7 (50 ng/mL; R&D Systems, Minneapolis, Minn., USA). In other experiments, protein lysate was collected using the Full Moon Biosystems (Sunnyvale, Calif., USA) buffer prior to protein examination by western blot or protein array.
Cells were cultured in a 96-well plate (Corning Costar, Corning, N.Y., USA) with various concentrations of TLR ligands 1-9, starting at 10 μg/ml, in a final volume of 200 ul. TLR ligands were diluted 2-fold. Cell lines (25-40×10^3/well) were cultured for 54 hours, whereas fresh patient-derived T-ALL cells (200×10^3/well) were cultured for 30 hours prior to adding [^3H]-thymidine for 18 hours. After this time point, cells were harvested with a Packard Filter-Mate-96 cell harvester (Perkin Elmer, Waltham, Mass., USA) and counted on Packard Top Count-NXT (Perkin Elmer, Waltham, Mass., USA). Results were expressed as average counts per minute (cpm). In some experiments CCRF-CEM cells were pre-treated with TLR1-TLR2 ligand (Pam3CysK4; 2.5 ug/ml) for 48 hrs, washed, and then cultured in the presence of varying concentrations of FBS. Forty-eight hours later, proliferation (±SD) was determined by ^3H-thymidine incorporation. Alternatively, apoptosis was measured by flow cytometry after staining cells with Annexin-V (BD Pharmingen, San Diego, Calif., USA) and propidium iodide (Sigma). Cell number was counted under microscopy by staining cells with trypan blue. […]

A375 cells = assay: Western blot of IRAK phosphorylation in A375; assay type: cell-based, human; conditions: Pam3CysK4 2.5 μg/ml or flagellin 100 ng/ml, 48 hours, FIG. 22B
Procedure: FIG. 22. Effects of TLR stimulation and cytokines on IRAK phosphorylation in melanoma cells. (A) A375 cells were cultured in the presence of anti-IL-18, anti-CXCL-1, (R&D Systems), anti-IL-1 (BioLegend), or mouse IgG (Sigma-Aldrich) all at 10 μg/ml. Forty-eight hours later the levels of the indicated proteins were determined by western blot. (B) A375 cells, which express p-IRAK-1 and p-IRAK-4, and G361 melanoma cells, which express very low levels of p-IRAK-1 (and express TLR5) were cultured in the presence of TLR1-TLR2 agonist (Pam3CysK4; 2.5 μg/ml) or TLR5 (flagellin; 100 ng/ml; InVivogen). Forty-eight hours later total protein was collected and the levels of the indicated proteins were examined by western blot.
Total cell extracts were prepared from melanoma cells. […] Melanoma tissue arrays were purchased from US Biomax, Inc (Rockville, Md.). For immunohistochemical staining samples were stained with mouse monoclonal anti-human phosphor-IRAK.-4 antibody (Abnova; dilution, 3.5 μg/ml) or normal mouse serum. Tissue histology sections (5-μm-thick) were deparaffinized, hydrated, heated in boiling 10 mmol/L sodium citrate (pH 6.0), for antigen retrieval, for 30 min and washed in Tris buffer. Peroxide blocking was done with 3% […] in methanol at room temperature for 15 min, followed by 10% fetal bovine serum in TBS-t for 30 min at room temperature. Primary antibody incubation was done overnight at 4° C. Secondary antibody incubation with horse anti-mouse (1:200; Vector Laboratories, Burlingame, Calif.) was done for 1 hr, followed by application of diaminobenzidine chromogen for 5 min. The slides were then counterstained with hematoxylin and topped with a coverslip. IHC specimens were analyzed using “quick score” system in which the intensity of the immunohistochemical reaction was scored by multiplying the intensity 1 (weak), 2 (moderate), and 3 (strong) and the proportion of cells staining positively 0 (<10%), 1 (10-25%), 2 (26-50%), 3 (51-75%) or 4 (>75%).

CEM-C7 = assay: Proliferation (3H-thymidine) of CEM-C7; assay type: cell-based, human
Excerpt: as §1
Cells were cultured in a 96-well plate (Corning Costar, Corning, N.Y., USA) with various concentrations of TLR ligands 1-9, starting at 10 μg/ml, in a final volume of 200 ul. TLR ligands were diluted 2-fold. Cell lines (25-40×10^3/well) were cultured for 54 hours, whereas fresh patient-derived T-ALL cells (200×10^3/well) were cultured for 30 hours prior to adding [^3H]-thymidine for 18 hours. After this time point, cells were harvested with a Packard Filter-Mate-96 cell harvester (Perkin Elmer, Waltham, Mass., USA) and counted on Packard Top Count-NXT (Perkin Elmer, Waltham, Mass., USA). Results were expressed as average counts per minute (cpm). In some experiments CCRF-CEM cells were pre-treated with TLR1-TLR2 ligand (Pam3CysK4; 2.5 ug/ml) for 48 hrs, washed, and then cultured in the presence of varying concentrations of FBS. Forty-eight hours later, proliferation (±SD) was determined by ^3H-thymidine incorporation. Alternatively, apoptosis was measured by flow cytometry after staining cells with Annexin-V (BD Pharmingen, San Diego, Calif., USA) and propidium iodide (Sigma). Cell number was counted under microscopy by staining cells with trypan blue.
The following TLR ligands were purchased from Invivogen (San Diego, Calif., USA): tripalmitoyl-S-(bis(palmitoyloxy)propyl)-Cys-Ser-(Lys)3-Lys (TLR1-2); Poly I:C (TLR3); ultrapure S. Minnesota Lipopolysaccharide (TLR4); S. typhimurium flagellin (TLR5); FSL-1 (TLR2/6); Imiquimod (TLR7); ssRNA40/Lyovec (TLR8); CpG-ODN 2006 (TLR9).

Chain of IRAK-1 (P51617 whole entry): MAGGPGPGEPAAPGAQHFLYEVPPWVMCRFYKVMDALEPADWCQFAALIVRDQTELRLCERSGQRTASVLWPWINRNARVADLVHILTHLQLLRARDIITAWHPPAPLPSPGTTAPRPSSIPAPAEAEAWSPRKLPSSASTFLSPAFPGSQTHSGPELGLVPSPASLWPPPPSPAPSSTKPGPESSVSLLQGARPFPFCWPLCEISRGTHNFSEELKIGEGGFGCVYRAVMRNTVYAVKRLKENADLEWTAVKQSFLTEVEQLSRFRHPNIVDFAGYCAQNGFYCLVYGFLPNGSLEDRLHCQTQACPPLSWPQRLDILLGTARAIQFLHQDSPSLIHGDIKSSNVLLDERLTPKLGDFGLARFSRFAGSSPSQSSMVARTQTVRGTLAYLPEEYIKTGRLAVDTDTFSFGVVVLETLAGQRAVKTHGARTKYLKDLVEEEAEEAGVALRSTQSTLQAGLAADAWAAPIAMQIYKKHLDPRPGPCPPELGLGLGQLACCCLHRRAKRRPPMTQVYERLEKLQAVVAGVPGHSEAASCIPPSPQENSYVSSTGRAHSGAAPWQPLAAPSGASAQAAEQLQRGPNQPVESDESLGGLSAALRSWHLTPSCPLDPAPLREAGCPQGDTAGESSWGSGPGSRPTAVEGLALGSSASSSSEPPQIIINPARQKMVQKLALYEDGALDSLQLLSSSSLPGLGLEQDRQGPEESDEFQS

Compound: O=C(Nc1nc2ccccc2n1CCN1CCOCC1)c1cccc([N+](=O)[O-])c1 [IRAK-1,-4 inhibitor]
- inhibition of IRAK-1 (IRAK-1): selectively inhibits
- Fold Change: AFX(Ab-197) (CCRF-CEM T-ALL cells): −2.62 fold
- Fold Change: AFX(Phospho-Ser 97) (CCRF-CEM T-ALL cells): −2.03 fold
- Fold Change: BAD(Ab-112) (CCRF-CEM T-ALL cells): −1.76 fold
- Fold Change: BAD(Phospho-Ser112) (CCRF-CEM T-ALL cells): −2.44 fold
- Fold Change: BCL-XL(Phospho-Ser62) (CCRF-CEM T-ALL cells): −2.42 fold
- Fold Change: CDC2(Phospho-Tyr15) (CCRF-CEM T-ALL cells): −2.33 fold
- Fold Change: FKHR(Ab-319) (CCRF-CEM T-ALL cells): −2.54 fold
- Fold Change: FKHRL1(Ab-253) (CCRF-CEM T-ALL cells): −2.36 fold
- Fold Change: FKHRL1(Phospho-Ser253) (CCRF-CEM T-ALL cells): −2.53 fold
- Fold Change: GSK3 alpha(Phospho-Ser21) (CCRF-CEM T-ALL cells): −2.13 fold
- Fold Change: HSP27(Phospho-Ser15) (CCRF-CEM T-ALL cells): −2.20 fold
- Fold Change: IKB-alpha(Ab-32/36) (CCRF-CEM T-ALL cells): −1.96 fold
- Fold Change: IKB-alpha(Phospho-Ser32/Phospho-Ser36) (CCRF-CEM T-ALL cells): −2.95 fold
- Fold Change: IRS-1(Phospho-Ser639) (CCRF-CEM T-ALL cells): −2.37 fold
- Fold Change: JAK2(Phospho-Tyr221) (CCRF-CEM T-ALL cells): −2.05 fold
- Fold Change: NFKB-p65(Ab-435) (CCRF-CEM T-ALL cells): −1.39 fold
- Fold Change: NFKB-p65(Phospho-Thr435) (CCRF-CEM T-ALL cells): −2.39 fold
- Fold Change: NFKB-p100/p52(Phospho-Ser869) (CCRF-CEM T-ALL cells): −2.50 fold
- Fold Change: NFKB-p105/p50(Phospho-Ser337) (CCRF-CEM T-ALL cells): −4.06 fold
- Fold Change: PTEN(Phospho-Ser380) (CCRF-CEM T-ALL cells): 1.35 fold
- Fold Change: Raf1(Phospho-Ser338) (CCRF-CEM T-ALL cells): −2.46 fold
- Fold Change: STAT1(Phospho-Ser727) (CCRF-CEM T-ALL cells): −2.17 fold
- Fold Change: STAT3(Phospho-Ser727) (CCRF-CEM T-ALL cells): −2.11 fold
- Fold Change: p44/42 MAP Kinase(Phospho-Tyr204) (CCRF-CEM T-ALL cells): −2.24 fold
- Fold Change: p53(Ab-46) (CCRF-CEM T-ALL cells): −1.39 fold
- Fold Change: p53(Phospho-Ser46) (CCRF-CEM T-ALL cells): −2.27 fold
- median survival (A375 melanoma cells): 19 days
- activity against a panel of 27 other kinases [1]: little to no activity
- activity against a panel of 27 other kinases ([1]; listed as IRAK.-1,-4 inhibitor): little activity

Compound: tripalmitoyl-S-(bis(palmitoyloxy)propyl)-Cys-Ser-(Lys)3-Lys [Pam3Cysk4]
- Proliferative effects of TLR ligands (Jurkat): ∘
- p-IRAK-1 or p-IRAK-4 expression levels (A375 cells): remained unchanged
- Proliferative effects of TLR ligands (CEM-C7; 3H-thymidine uptake, 72 h): + (enhanced proliferation by 25% or greater)
- TLR ligand concentration in parentheses below the symbol (CEM-C7; no unit in table (μg/ml)): (2.5)
